From PMC8284461, “Piperidine-4-Carboxamides Target DNA Gyrase in Mycobacterium abscessus” (Antimicrobial Agents and Chemotherapy, 2021)
Values after ≈ are worked out from the molar mass of the structure shown.

How the values were obtained:
[1] = system: M. abscessus subsp. abscessus ATCC 19977; test: MIC, broth microdilution; format: cell-based, Mycobacterium abscessus; settings: abscessus ATCC 19977 wild type, 90% growth inhibition, 3 days
Protocol: (§1) MIC was determined using the broth microdilution method in 96-well plates as described previously ([47]). Briefly, a 10-point 2-fold serial dilution of compounds was performed in 96-well plates (Costar 3370; Corning, USA) starting at twice the desired highest concentration. […] One hundred microliters of the bacterial suspension was seeded onto the 96-well plates containing 100 μl of the serially diluted compounds to give a final volume of 200 μl in each well with the final OD600 of 0.005. The plates were sealed with parafilm, placed onto wet paper towels in a lock-lock box and incubated for 3 days at 37°C with orbital shaking at 90 rpm. […] Absorbance values at day 3 were subtracted from the day 0 readout. Percent growth inhibition was calculated by dividing the absolute absorbance value of treated cells with untreated control and multiplying by 100. CLR was included in all MIC experiments as a positive control to monitor assay reproducibility. MIC was defined as 90% of growth inhibition relative to untreated controls.

[2] = system: M. abscessus subsp. abscessus Bamboo; test: MIC, broth microdilution; format: cell-based, Mycobacterium abscessus; settings: Mycobacteroides abscessus, 72 h; abscessus Bamboo wild type; 90% growth inhibition, 3 days
Protocol: as §1

[3] = system: M. abscessus subsp. abscessus K21; test: MIC, broth microdilution; format: cell-based, Mycobacterium abscessus; settings: Mycobacteroides abscessus, 72 h, 90% growth inhibition, 3 days
Protocol: as §1

[4] = system: M. abscessus subsp. abscessus M199; test: MIC, broth microdilution; format: cell-based, Mycobacterium abscessus; settings: Mycobacteroides abscessus, 72 h, 90% growth inhibition, 3 days
Protocol: as §1

[5] = system: M. abscessus subsp. abscessus M337; test: MIC, broth microdilution; format: cell-based, Mycobacterium abscessus; settings: Mycobacteroides abscessus, 72 h, 90% growth inhibition, 3 days
Protocol: as §1

[6] = system: M. abscessus subsp. abscessus M404; test: MIC, broth microdilution; format: cell-based, Mycobacterium abscessus; settings: Mycobacteroides abscessus, 72 h, 90% growth inhibition, 3 days
Protocol: as §1

[7] = system: M. abscessus subsp. abscessus M421; test: MIC, broth microdilution; format: cell-based, Mycobacterium abscessus; settings: Mycobacteroides abscessus, 72 h, 90% growth inhibition, 3 days
Protocol: as §1

[8] = system: M. abscessus subsp. abscessus M9; test: MIC, broth microdilution; format: cell-based, Mycobacterium abscessus; settings: Mycobacteroides abscessus, 72 h, 90% growth inhibition, 3 days
Protocol: as §1

[9] = system: M. abscessus subsp. bolletii CCUG 50184T; test: MIC, broth microdilution; format: cell-based, Mycobacterium abscessus; settings: Mycobacteroides abscessus, 72 h, 90% growth inhibition, 3 days
Protocol: as §1

[10] = system: M. abscessus subsp. bolletii M232; test: MIC, broth microdilution; format: cell-based, Mycobacterium abscessus; settings: Mycobacteroides abscessus, 72 h, 90% growth inhibition, 3 days
Protocol: as §1

[11] = system: M. abscessus subsp. bolletii M506; test: MIC, broth microdilution; format: cell-based, Mycobacterium abscessus; settings: Mycobacteroides abscessus, 72 h, 90% growth inhibition, 3 days
Protocol: as §1

[12] = system: M. abscessus subsp. massiliense CCUG 48898T; test: MIC, broth microdilution; format: cell-based, Mycobacterium abscessus; settings: Mycobacteroides abscessus, 72 h, 90% growth inhibition, 3 days
Protocol: as §1

[13] = system: M. abscessus subsp. massiliense M111; test: MIC, broth microdilution; format: cell-based, Mycobacterium abscessus; settings: Mycobacteroides abscessus, 72 h, 90% growth inhibition, 3 days
Protocol: as §1

[14] = system: M. abscessus subsp. abscessus Bamboo 844^r-2 (GyrA D91N); test: MIC, resistant mutant; format: cell-based, Mycobacterium abscessus; settings: Mycobacteroides abscessus
[15] = system: M. abscessus subsp. abscessus Bamboo 844^r-3 (GyrB S473W); test: MIC, resistant mutant; format: cell-based, Mycobacterium abscessus; settings: Mycobacteroides abscessus
[16] = system: M. abscessus subsp. abscessus ATCC 19977 844-TMF^r-4 (GyrB M474I); test: MIC, resistant mutant; format: cell-based, Mycobacterium abscessus; settings: Mycobacteroides abscessus, ATCC19977
[17] = system: M. abscessus subsp. abscessus ATCC 19977 MXF^r-1 (GyrA D96Y); test: MIC, resistant mutant; format: cell-based, Mycobacterium abscessus; settings: Mycobacteroides abscessus, ATCC19977
[18] = system: M. abscessus subsp. abscessus ATCC 19977 MXF^r-2 (GyrA D96N); test: MIC, resistant mutant; format: cell-based, Mycobacterium abscessus; settings: Mycobacteroides abscessus, ATCC19977
[19] = system: M. abscessus subsp. abscessus ATCC 19977 MXF^r-3 (GyrA D96G); test: MIC, resistant mutant; format: cell-based, Mycobacterium abscessus; settings: Mycobacteroides abscessus, ATCC19977
[20] = target: recombinant M. abscessus wild-type DNA gyrase (Mycobacteroides abscessus, UniProt B1ME45+B1ME58); test: biochemical; parameters: species or system Mycobacterium abscessus; settings: wild-type DNA gyrase, up to 50 μM
[21] = system: M. abscessus subsp. abscessus ATCC 19977; parameters: method as in PMID 19171799; settings: abscessus ATCC 19977, erm(41) T28; inducible resistance by sequevar; cited from earlier work
[22] = system: M. abscessus subsp. bolletii CCUG 50184T; parameters: method as in PMID 19171799; settings: erm(41) T28; cited from earlier work
[23] = system: M. abscessus subsp. massiliense CCUG 48898T; parameters: method as in PMID 19171799; settings: erm(41) deletion; cited from earlier work
[24] = system: M. abscessus subsp. abscessus Bamboo; parameters: method as in PMID 19171799; settings: erm(41) C28; cited from earlier work
[25] = system: M. abscessus subsp. abscessus K21; parameters: method as in PMID 19171799; settings: abscessus K21, erm(41) C28; cited from earlier work
[26] = system: M. abscessus subsp. abscessus M9; parameters: method as in PMID 19171799; settings: abscessus M9, erm(41) T28; cited from earlier work
[27] = system: M. abscessus subsp. abscessus M199; parameters: method as in PMID 19171799; settings: abscessus M199, erm(41) T28; cited from earlier work
[28] = system: M. abscessus subsp. abscessus M337; parameters: method as in PMID 19171799; settings: abscessus M337, erm(41) T28; cited from earlier work
[29] = system: M. abscessus subsp. abscessus M404; parameters: method as in PMID 19171799; settings: abscessus M404, erm(41) C28; cited from earlier work
[30] = system: M. abscessus subsp. abscessus M421; parameters: method as in PMID 19171799; settings: abscessus M421, erm(41) T28; cited from earlier work
[31] = system: M. abscessus subsp. bolletii M232; parameters: method as in PMID 19171799; settings: bolletii M232, erm(41) T28; cited from earlier work
[32] = system: M. abscessus subsp. bolletii M506; parameters: method as in PMID 19171799; settings: bolletii M506, erm(41) C28; cited from earlier work
[33] = system: M. abscessus subsp. massiliense M111; parameters: method as in PMID 19171799; settings: massiliense M111, erm(41) deletion; cited from earlier work

recombinant M. abscessus wild-type DNA gyrase, sequence (B1ME58 entry or part of it): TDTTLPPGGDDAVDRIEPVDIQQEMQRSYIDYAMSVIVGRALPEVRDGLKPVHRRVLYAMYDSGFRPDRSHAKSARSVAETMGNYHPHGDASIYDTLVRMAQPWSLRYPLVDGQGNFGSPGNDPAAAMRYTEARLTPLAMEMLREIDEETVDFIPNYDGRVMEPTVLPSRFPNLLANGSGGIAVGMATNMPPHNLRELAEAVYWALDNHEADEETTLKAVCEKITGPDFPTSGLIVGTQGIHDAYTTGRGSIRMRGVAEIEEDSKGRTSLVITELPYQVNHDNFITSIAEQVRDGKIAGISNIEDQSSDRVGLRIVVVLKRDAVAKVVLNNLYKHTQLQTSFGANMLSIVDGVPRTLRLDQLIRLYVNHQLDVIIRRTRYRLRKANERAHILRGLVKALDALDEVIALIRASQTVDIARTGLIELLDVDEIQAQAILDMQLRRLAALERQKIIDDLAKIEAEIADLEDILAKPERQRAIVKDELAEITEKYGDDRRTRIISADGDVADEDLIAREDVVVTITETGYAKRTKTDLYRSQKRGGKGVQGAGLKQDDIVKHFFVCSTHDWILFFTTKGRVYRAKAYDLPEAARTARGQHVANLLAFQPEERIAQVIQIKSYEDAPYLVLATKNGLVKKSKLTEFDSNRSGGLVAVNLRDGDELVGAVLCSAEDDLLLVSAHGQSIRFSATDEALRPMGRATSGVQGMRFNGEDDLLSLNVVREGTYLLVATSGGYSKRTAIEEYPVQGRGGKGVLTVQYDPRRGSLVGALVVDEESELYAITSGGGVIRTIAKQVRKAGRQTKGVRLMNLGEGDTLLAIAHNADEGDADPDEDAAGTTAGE
recombinant M. abscessus wild-type DNA gyrase, sequence (B1ME45 entry or part of it): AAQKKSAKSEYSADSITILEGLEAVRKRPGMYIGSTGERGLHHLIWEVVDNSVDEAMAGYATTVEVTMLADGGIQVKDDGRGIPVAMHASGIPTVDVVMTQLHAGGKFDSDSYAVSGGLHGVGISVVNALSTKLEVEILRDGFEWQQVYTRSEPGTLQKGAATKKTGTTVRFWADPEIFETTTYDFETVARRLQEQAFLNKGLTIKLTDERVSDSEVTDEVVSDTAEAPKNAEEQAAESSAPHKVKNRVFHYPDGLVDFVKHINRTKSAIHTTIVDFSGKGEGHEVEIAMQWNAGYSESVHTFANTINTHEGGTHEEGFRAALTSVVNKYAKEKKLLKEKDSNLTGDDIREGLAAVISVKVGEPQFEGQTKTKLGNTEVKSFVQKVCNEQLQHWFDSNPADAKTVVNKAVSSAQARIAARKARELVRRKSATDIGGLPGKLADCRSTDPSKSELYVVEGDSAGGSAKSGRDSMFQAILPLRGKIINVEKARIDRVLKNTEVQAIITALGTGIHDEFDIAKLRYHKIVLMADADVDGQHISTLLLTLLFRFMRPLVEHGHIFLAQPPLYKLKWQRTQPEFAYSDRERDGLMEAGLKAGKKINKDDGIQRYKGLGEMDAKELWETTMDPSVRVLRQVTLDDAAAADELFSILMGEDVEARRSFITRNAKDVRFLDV

**Q.** For CC[C@H]1OC(=O)[C@H](C)[C@@H](O[C@H]2C[C@@](C)(OC)[C@@H](O)[C@H](C)O2)[C@H](C)[C@@H](O[C@@H]2O[C@H](C)C[C@H](N(C)C)[C@H]2O)[C@](C)(OC)C[C@@H](C)C(=O)[C@H](C)[C@@H](O)[C@]1(C)O [CLR, clarithromycin], which MIC ([1]; Mycobacteroides abscessus, ATCC19977, 72 h) is on record?
**A.** Its MIC is 2 µM (≈ 1.5 µg/mL).

**Q.** What about the MIC [1] of the same compound?
**A.** The MIC was 2 µM (≈ 1.5 µg/mL).

**Q.** And the MIC [2]?
**A.** The MIC was 0.4 µM (≈ 0.299 µg/mL).

**Q.** What about the MIC [3] of the same compound?
**A.** The MIC was 0.6 µM (≈ 0.449 µg/mL).

**Q.** And the MIC [4]?
**A.** The MIC was 3.2 µM (≈ 2.39 µg/mL).

**Q.** And the MIC [5]?
**A.** Its MIC is 3.2 µM (≈ 2.39 µg/mL).

**Q.** What about the MIC [6] of the same compound?
**A.** The MIC was 0.8 µM (≈ 0.598 µg/mL).

**Q.** What about the MIC [7] of the same compound?
**A.** The MIC was 3.2 µM (≈ 2.39 µg/mL).

**Q.** What about the MIC [8] of the same compound?
**A.** The MIC was 3.2 µM (≈ 2.39 µg/mL).

**Q.** And the MIC [9]?
**A.** Its MIC is 1.2 µM (≈ 0.898 µg/mL).

**Q.** And the MIC [10]?
**A.** The MIC was 3.2 µM (≈ 2.39 µg/mL).

**Q.** And the MIC [11]?
**A.** Its MIC is 0.8 µM (≈ 0.598 µg/mL).

**Q.** And the MIC [12]?
**A.** The MIC was 0.2 µM (≈ 0.15 µg/mL).

**Q.** What about the MIC [13] of the same compound?
**A.** The MIC was 0.2 µM (≈ 0.15 µg/mL).

**Q.** And the MIC [14]?
**A.** The MIC was 0.3 µM (≈ 0.224 µg/mL).

**Q.** What about the MIC [15] of the same compound?
**A.** The MIC was 0.4 µM (≈ 0.299 µg/mL).

**Q.** And the MIC [16]?
**A.** Its MIC is 2 µM (≈ 1.5 µg/mL).

**Q.** What about the MIC [17] of the same compound?
**A.** The MIC was 2 µM (≈ 1.5 µg/mL).

**Q.** What about the MIC [18] of the same compound?
**A.** Its MIC is 1 µM (≈ 0.748 µg/mL).

**Q.** What about the MIC [19] of the same compound?
**A.** Its MIC is 1 µM (≈ 0.748 µg/mL).

**Q.** What about the “effect on supercoiling activity” value [20] of the same compound?
**A.** The value was “did not affect the activity of the enzyme”.

**Q.** What about the CLR susceptibility [21] of the same compound?
**A.** Its CLR susceptibility is “Resistant”.

**Q.** And the CLR susceptibility [22]?
**A.** Its CLR susceptibility is “Resistant”.

**Q.** And the CLR susceptibility [23]?
**A.** The CLR susceptibility was “Sensitive”.

**Q.** And the CLR susceptibility [24]?
**A.** The CLR susceptibility was “Sensitive”.

**Q.** And the CLR susceptibility [25]?
**A.** The CLR susceptibility was “Sensitive”.

**Q.** What about the CLR susceptibility [26] of the same compound?
**A.** Its CLR susceptibility is “Resistant”.

**Q.** What about the CLR susceptibility [27] of the same compound?
**A.** Its CLR susceptibility is “Resistant”.

**Q.** What about the CLR susceptibility [28] of the same compound?
**A.** The CLR susceptibility was “Resistant”.

**Q.** And the CLR susceptibility [29]?
**A.** The CLR susceptibility was “Sensitive”.

**Q.** And the CLR susceptibility [30]?
**A.** The CLR susceptibility was “Resistant”.

**Q.** What about the CLR susceptibility [31] of the same compound?
**A.** Its CLR susceptibility is “Resistant”.

**Q.** What about the CLR susceptibility [32] of the same compound?
**A.** The CLR susceptibility was “Sensitive”.

**Q.** And the CLR susceptibility [33]?
**A.** The CLR susceptibility was “Sensitive”.
